The IC50 is the concentration at which inhibition is half-maximal.

The target of one experiment is cytochrome P450 2C19 (Homo sapiens, UniProt P33261). The experiment can be described thus: Inhibitory activity on cytochrome P450 2C19. The format is in vitro ADME. The note with it: no significant inhibition.
The target of a further experiment is cytochrome P450 2C9 (Homo sapiens, UniProt P11712). The experiment can be described thus: Inhibitory activity on cytochrome P450 2C9. It is filed as in vitro ADME. The note with it: no significant inhibition.
The subject of a further experiment is Karpas-299 cell line. As to the kind of experiment: CellTiter-Glo cell proliferation inhibition on Karpas-299 cell line. The format is cell-based. The note with it: Homo sapiens, 96 h, Karpas-299 cells, 5000 cells/well, 4 days drug treatment. Summed up: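 Karpas-299 cells (5000/well, RPMI-1640 + 10% FBS) pre-incubated 2 h at 37 °C, then treated with compound (0.5% DMSO final) for 4 days. Viability read by CellTiter-Glo luminescence; inhibition calculated against DMSO control, IC50 fitted.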

In the next experiment the target is cytochrome P450 2D6 (Homo sapiens, UniProt P10635). As to the kind of experiment: Inhibitory activity on cytochrome P450 2D6. The note with it: no significant inhibition. It is filed as in vitro ADME.
The next experiment concerns the target T1, cytochrome P450 1A2 (Homo sapiens, UniProt P05177).
T1 sequence (P05177 1-516): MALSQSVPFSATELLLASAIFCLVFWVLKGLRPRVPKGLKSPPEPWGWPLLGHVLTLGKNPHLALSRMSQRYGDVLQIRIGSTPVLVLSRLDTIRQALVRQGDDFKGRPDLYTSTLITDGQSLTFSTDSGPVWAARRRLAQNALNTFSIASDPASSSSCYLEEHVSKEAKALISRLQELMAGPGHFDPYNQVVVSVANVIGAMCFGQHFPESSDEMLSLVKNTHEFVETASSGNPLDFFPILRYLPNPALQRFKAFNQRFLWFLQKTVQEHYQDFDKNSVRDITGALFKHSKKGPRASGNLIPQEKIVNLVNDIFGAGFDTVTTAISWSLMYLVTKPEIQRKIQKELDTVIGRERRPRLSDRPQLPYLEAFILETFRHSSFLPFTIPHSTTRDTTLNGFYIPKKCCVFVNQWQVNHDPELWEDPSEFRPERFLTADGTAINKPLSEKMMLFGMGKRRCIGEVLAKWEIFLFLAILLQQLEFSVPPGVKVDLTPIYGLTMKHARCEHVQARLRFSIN
As to the kind of experiment: Inhibitory activity on cytochrome P450 1A2. The format is in vitro ADME. The note with it: no significant inhibition.

Another experiment concerns the target T2, Wild Type ALK kinase (Homo sapiens, UniProt Q9UM73).
T2 construct: purchased Sino-US Crown Bioscience, Inc. batch number ALK 20110607
As to the kind of experiment: HTRF KinEASE-TK assay, inhibitory activity on wild type ALK kinase. The format is biochemical. The note with it: wild type ALK 1 ng/μl, substrate 1 μM, 30° C. 35 minutes, read-out: Inhibition on ALK kinases (wildtype), IC50. Summed up:
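ALK kinase at 1 ng/μl and substrate at 1 μM were reacted with compound (1% DMSO) in buffer with 5 mM MgCl2 and 1 mM DTT for 35 min at 30 °C. HTRF detection used the 665/615 ratio, normalised to no-compound wells and to 10.4 μM LDK-378 wells. IC50 came from a concentration-response fit.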
Background: In TR-FRET formats the signal depends on donor and acceptor labels being close together.

A further experiment has as its target cytochrome P450 3A4 (Homo sapiens, UniProt P08684). The experiment can be described thus: Inhibitory activity on cytochrome P450 3A4. To be noted: no significant inhibition. The format is in vitro ADME.

cytochrome P450 2D6, sequence (P10635 whole entry): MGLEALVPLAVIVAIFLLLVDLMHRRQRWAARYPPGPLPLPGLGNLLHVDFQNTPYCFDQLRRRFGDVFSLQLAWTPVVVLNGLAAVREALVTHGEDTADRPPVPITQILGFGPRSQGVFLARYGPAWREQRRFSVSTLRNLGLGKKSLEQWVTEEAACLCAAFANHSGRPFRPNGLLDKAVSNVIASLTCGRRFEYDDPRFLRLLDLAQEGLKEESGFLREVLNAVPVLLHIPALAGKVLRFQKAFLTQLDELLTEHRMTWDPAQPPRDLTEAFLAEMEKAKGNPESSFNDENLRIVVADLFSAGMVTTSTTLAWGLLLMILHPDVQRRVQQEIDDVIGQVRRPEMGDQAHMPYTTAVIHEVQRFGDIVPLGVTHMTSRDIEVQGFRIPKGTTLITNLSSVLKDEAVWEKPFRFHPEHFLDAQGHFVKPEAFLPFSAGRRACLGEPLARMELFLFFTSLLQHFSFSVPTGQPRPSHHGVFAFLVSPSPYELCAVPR
T2 sequence (Q9UM73 19-1620): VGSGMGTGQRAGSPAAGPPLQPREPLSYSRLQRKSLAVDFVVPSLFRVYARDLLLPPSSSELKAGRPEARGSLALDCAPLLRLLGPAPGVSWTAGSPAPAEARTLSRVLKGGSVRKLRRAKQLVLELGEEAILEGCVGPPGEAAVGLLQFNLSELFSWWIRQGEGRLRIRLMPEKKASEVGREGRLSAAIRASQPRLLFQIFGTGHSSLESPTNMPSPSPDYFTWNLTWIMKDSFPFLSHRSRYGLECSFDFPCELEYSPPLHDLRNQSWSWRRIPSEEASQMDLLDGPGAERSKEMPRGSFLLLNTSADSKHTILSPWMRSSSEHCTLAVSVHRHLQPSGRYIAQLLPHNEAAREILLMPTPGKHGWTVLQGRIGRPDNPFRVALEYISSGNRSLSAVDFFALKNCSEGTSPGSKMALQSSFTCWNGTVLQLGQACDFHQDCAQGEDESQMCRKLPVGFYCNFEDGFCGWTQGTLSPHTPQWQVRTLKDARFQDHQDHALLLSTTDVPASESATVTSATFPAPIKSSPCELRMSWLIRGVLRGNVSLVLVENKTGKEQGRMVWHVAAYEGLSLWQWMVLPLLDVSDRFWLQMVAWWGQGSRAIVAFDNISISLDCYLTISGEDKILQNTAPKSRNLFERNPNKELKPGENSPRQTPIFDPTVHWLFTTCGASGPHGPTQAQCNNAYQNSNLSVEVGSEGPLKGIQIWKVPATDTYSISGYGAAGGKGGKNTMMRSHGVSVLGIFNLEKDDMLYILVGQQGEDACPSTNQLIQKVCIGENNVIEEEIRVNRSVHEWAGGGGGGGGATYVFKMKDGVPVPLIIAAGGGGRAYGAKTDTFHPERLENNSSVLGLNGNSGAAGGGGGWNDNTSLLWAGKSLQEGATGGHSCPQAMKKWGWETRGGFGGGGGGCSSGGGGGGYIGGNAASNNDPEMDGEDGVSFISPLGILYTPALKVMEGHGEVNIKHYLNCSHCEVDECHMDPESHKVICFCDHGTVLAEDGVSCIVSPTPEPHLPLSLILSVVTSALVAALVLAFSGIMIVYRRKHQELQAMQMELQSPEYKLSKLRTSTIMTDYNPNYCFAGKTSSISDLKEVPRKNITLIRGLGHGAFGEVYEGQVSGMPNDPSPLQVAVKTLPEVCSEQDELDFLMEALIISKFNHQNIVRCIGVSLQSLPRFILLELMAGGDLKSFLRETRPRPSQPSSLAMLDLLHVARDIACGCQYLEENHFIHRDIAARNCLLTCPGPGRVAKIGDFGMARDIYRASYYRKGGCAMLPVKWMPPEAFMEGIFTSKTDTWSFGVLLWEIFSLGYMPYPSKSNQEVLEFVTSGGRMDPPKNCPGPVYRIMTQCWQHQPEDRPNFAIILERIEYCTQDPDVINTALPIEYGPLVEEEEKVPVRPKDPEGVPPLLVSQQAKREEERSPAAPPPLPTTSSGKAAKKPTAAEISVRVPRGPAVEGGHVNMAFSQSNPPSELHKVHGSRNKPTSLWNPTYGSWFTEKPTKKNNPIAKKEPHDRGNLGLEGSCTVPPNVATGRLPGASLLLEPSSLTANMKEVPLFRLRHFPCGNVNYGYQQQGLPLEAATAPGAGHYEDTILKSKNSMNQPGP
cytochrome P450 2C19, sequence (P33261 whole entry): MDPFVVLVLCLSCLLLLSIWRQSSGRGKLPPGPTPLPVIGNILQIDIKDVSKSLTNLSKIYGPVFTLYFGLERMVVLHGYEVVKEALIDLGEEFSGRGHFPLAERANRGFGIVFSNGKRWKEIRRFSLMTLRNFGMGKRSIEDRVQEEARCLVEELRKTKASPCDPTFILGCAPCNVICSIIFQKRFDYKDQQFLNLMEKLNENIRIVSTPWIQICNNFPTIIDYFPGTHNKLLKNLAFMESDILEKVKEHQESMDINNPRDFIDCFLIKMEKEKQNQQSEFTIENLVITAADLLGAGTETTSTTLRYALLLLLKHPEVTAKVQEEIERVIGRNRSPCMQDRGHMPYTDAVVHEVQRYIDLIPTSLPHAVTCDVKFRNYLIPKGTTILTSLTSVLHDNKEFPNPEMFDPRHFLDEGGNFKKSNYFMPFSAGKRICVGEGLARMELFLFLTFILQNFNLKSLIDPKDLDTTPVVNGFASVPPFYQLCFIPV
cytochrome P450 3A4, sequence (P08684 whole entry): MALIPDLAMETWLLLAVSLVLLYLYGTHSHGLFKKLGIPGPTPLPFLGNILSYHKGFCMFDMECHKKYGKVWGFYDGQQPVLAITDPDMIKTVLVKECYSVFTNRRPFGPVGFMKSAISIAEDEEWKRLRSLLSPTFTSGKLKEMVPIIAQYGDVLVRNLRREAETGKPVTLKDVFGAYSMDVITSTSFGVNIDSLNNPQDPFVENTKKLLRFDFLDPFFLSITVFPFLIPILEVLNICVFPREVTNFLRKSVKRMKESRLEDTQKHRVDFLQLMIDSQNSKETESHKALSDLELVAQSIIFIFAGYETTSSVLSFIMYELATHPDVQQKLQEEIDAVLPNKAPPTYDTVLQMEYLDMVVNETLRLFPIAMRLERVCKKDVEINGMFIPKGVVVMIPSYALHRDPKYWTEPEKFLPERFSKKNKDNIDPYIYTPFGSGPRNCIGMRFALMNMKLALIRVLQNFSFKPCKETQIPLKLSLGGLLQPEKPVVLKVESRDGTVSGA
cytochrome P450 2C9, sequence (P11712 whole entry): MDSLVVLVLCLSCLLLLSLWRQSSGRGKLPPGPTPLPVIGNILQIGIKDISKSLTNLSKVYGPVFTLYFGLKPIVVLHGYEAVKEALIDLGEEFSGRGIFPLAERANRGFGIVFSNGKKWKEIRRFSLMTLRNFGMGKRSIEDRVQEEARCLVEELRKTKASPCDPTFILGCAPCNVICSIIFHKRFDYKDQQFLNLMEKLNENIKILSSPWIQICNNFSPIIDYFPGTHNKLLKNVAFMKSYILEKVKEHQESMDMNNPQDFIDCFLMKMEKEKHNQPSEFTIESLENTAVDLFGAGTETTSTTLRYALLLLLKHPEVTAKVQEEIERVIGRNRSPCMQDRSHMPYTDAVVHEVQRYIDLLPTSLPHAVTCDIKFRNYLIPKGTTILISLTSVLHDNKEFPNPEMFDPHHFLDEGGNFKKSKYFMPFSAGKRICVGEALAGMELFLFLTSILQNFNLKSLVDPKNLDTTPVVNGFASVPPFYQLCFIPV

`Cc1cc(Nc2ncc(Cl)c(Nc3cn(C)nc3S(=O)(=O)CC(C)C)n2)c(OC2CC2)cc1C1CCN(C)CC1` [Final product 57]: the IC50 was above 10 µM against cytochrome P450 2C19; above 10 µM on cytochrome P450 2C9; 12 nM in the experiment on Karpas-299 cell line; above 10 µM against cytochrome P450 2D6; above 10 µM against cytochrome P450 1A2; 7 nM at Wild Type ALK kinase. The IC50 on cytochrome P450 3A4 is above 10 µM.

Turning to `COCC1CC(c2cc(OC3CC3)c(Nc3ncc(Cl)c(Nc4cn(C)nc4S(=O)(=O)C(C)C)n3)cc2C)CCN1C` (centres unmarked) [Final product 77], the IC50 is above 10 µM at cytochrome P450 2C19; above 10 µM against cytochrome P450 2C9; 4 nM with Karpas-299 cell line; above 10 µM on cytochrome P450 2D6; above 10 µM against cytochrome P450 1A2; 2 nM at Wild Type ALK kinase. Also, the IC50 on cytochrome P450 3A4 is above 10 µM.

In the case of `Cc1cc(Nc2ncc(Cl)c(Nc3cn(C)nc3S(=O)(=O)C(C)C)n2)c(OC2CC2)cc1C1CCN(C)C1` (centres unmarked) [Final product 53], the IC50 in the experiment on Karpas-299 cell line is 16 nM; on Wild Type ALK kinase, 3 nM.

In the case of `Cc1cc(Nc2ncc(Cl)c(Nc3cn(C)nc3S(=O)(=O)C(C)C)n2)c(OC(C)C)cc1C1CCNCC1` [Final product 2], the IC50 turned out to be 16 nM in the experiment with Karpas-299 cell line and 6 nM on Wild Type ALK kinase.

On to `Cc1cc(Nc2ncc(Cl)c(Nc3cn(C)nc3S(=O)(=O)C(C)C)n2)c(OC(C)C)cc1C1CCNC1` (centres unmarked) [Final product 3], for which the concentration for half-maximal inhibition (IC50) in the experiment with Karpas-299 cell line turned out to be 28 nM; on Wild Type ALK kinase it was 4 nM.

In the case of `CC(C)Oc1cc(C2CCNCC2)ccc1Nc1ncc(Cl)c(Nc2cn(C)nc2S(=O)(=O)C(C)C)n1` [Final product 1, 5-chloro-N^2-[2-isopropoxy-4-(piperidin-4-yl)phenyl]-N^4-(3-isopropylsulfonyl-1-methyl-1H-pyrazol-4-yl)pyrimidin-2,4-diamine], the IC50 with Karpas-299 cell line came out at 10 nM; on Wild Type ALK kinase it was 4 nM.

Consider `Cc1cc(Nc2ncc(Cl)c(Nc3cn(C)nc3S(=O)(=O)C(C)C)n2)c(OC2CC2)cc1C1CCN(C)CC1(F)F` (centres unmarked) [Final product 88], for which the IC50 was 17 nM with Karpas-299 cell line and 6 nM at Wild Type ALK kinase.

As to `Cc1cc(Nc2ncc(Cl)c(Nc3cn(C)nc3S(=O)(=O)C(C)C)n2)c(OC2CC2)cc1C1CCC(NS(C)(=O)=O)CC1` (centres unmarked) [Final product 205, N-(4-(4-(5-chloro-4-(3-(isopropylsulfonyl)-1-methyl-1H-pyrazol-4-amine)pyrimidin-2-amine)-5-cyclopropoxy-2-methylphenyl)cyclohexyl)methanesulfonamide], the IC50 was above 10 µM against cytochrome P450 2C19; above 10 µM at cytochrome P450 2C9; 18 nM in the experiment on Karpas-299 cell line; above 10 µM against cytochrome P450 2D6; above 10 µM at cytochrome P450 1A2; above 10 µM on cytochrome P450 3A4.

On to `Cc1cc(Nc2ncc(Cl)c(Nc3cn(C)nc3S(=O)(=O)C(C)C)n2)c(OC2CC2)cc1C1CN(C)C1` [Final product 54], for which the IC50 in the experiment with Karpas-299 cell line was 7 nM; on Wild Type ALK kinase, 3 nM.

As for `COCC1CC(c2cc(OC3CC3)c(Nc3ncc(Cl)c(Nc4cn(C)nc4S(=O)(=O)CC(C)C)n3)cc2C)CCN1C` (centres unmarked) [Final product 79], the figures for the IC50 in the experiment with Karpas-299 cell line and on Wild Type ALK kinase were 12 nM and 3 nM, respectively.

For the molecule `Cc1cc(Nc2ncc(Cl)c(Nc3cn(C4CC4)nc3S(=O)(=O)C(C)C)n2)c(OC2CC2)cc1C1CCN(C)CC1` [Final product 56], the IC50 was 21 nM in the experiment on Karpas-299 cell line and 5 nM at Wild Type ALK kinase.

On to `Cc1cc(Nc2ncc(Cl)c(Nc3cn(C)nc3S(=O)(=O)CC(C)C)n2)c(OC2CC2)cc1C1CN(C)C1` [Final product 55], for which the IC50 worked out at 25 nM in the experiment on Karpas-299 cell line and 4 nM on Wild Type ALK kinase.

For `Cc1cc(Nc2ncc(Cl)c(Nc3cn(C)nc3S(=O)(=O)C(C)C)n2)c(OC2CC2)cc1C1CCN(C)CC1C` (centres unmarked) [Final product 90], the IC50 in the experiment with Karpas-299 cell line was 5 nM; on Wild Type ALK kinase it was 1 nM.

On to `COC1CN(C)CCC1c1cc(OC2CC2)c(Nc2ncc(Cl)c(Nc3cn(C)nc3S(=O)(=O)C(C)C)n2)cc1C` (centres unmarked) [Final product 58], for which the IC50 with Karpas-299 cell line was 11 nM; at Wild Type ALK kinase it was 4 nM.

For `Cc1cc(Nc2ncc(Cl)c(Nc3cn(C)nc3S(=O)(=O)C(C)C)n2)c(OC2CC2)cc1C1CCN(C)CC1F` (centres unmarked) [Final product 87], the half-maximal inhibitory concentration (IC50) in the experiment on Karpas-299 cell line amounted to 13 nM; on Wild Type ALK kinase, 6 nM.

Take `COCCN1CCC(c2cc(OC3CC3)c(Nc3ncc(Cl)c(Nc4cn(C)nc4S(=O)(=O)C(C)C)n3)cc2C)CC1` [Final product 82]: the IC50 on cytochrome P450 2C19 is above 10 µM; against cytochrome P450 2C9, above 10 µM; in the experiment with Karpas-299 cell line, 14 nM; at cytochrome P450 2D6 it was above 10 µM; against cytochrome P450 1A2, above 10 µM; on Wild Type ALK kinase, 4 nM. The molecule further showed an IC50 at cytochrome P450 3A4 above 10 µM.

Consider `Cc1cc(Nc2ncc(Cl)c(Nc3cn(C4CC4)nc3S(=O)(=O)C(C)C)n2)c(OC(C)C)cc1C1CCN(C)CC1` [Final product 81], for which the IC50 is 27 nM with Karpas-299 cell line and 11 nM on Wild Type ALK kinase.
